Measured values: PubChem BioAssay (NCI)
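In this assay, cells in 96-well plates receive the compound at five concentrations for 48 hours. Endpoints are linearly interpolated between the surrounding concentrations. Abbreviation: GI50, concentration required for 50% inhibition of growth. TGI: concentration producing complete growth inhibition.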

What was measured:
Assay in all cases: inhibition of tumour cell growth, NCI panel, 48 h
[1] = test system: MOLT-4 leukemia
[2] = test system: EKVX NSCLC
[3] = test system: A549 NSCLC
[4] = test system: HCT-15 colon
[5] = test system: 786-0 renal
[6] = test system: COLO 205 colon
[7] = test system: U251 CNS
[8] = test system: NCI-H460 lung
[9] = test system: UACC-257 melanoma
[10] = test system: ACHN renal

## COC(=O)CCC/C=C\C[C@H]1C=CC(=O)/C1=C/C[C@@H](O)C/C=C\CC(F)(F)F
[1]
  GI50: 773 nM
  TGI: 4.22 µM
[2]
  GI50: 4.04 µM
  TGI: 14.6 µM
[3]
  GI50: 2910 nM
  TGI: 8.73 µM
[4]
  GI50: 1070 nM
  TGI: 3.29 µM
[5]
  GI50: 1850 nM
  TGI: 3.57 µM
[6]
  GI50: 2030 nM
  TGI: 4.58 µM
[7]
  GI50: 1790 nM
  TGI: 4.32 µM
[8]
  GI50: 3.04 µM
  TGI: 10.6 µM
[9]
  GI50: 2.54 µM
  TGI: 7.82 µM
[10]
  GI50: 1950 nM
  TGI: 3.97 µM

## CCOC(=O)c1sc(Nc2ccc(Cl)cc2)nc1C
[1]
  GI50: 1790 nM
  TGI: 6.92 µM
[2]
  GI50: 0.969 µM
  TGI: 5.52 µM
[3]
  GI50: 2170 nM
  TGI: 5.45 µM
[4]
  GI50: 1620 nM
  TGI: 3.92 µM
[5]
  GI50: 1550 nM
  TGI: 3.14 µM
[6]
  GI50: 1830 nM
  TGI: 3.59 µM
[7]
  GI50: 1960 nM
  TGI: 4.3 µM
[8]
  GI50: 2.34 µM
  TGI: 6.31 µM
[9]
  GI50: 2.11 µM
  TGI: 4.67 µM
[10]
  GI50: 1680 nM
  TGI: 3.88 µM

## COc1ccc2c(c1)CC[C@@H]1[C@@H]2CC[C@]2(C)C(c3ccco3)=C(C=O)C[C@@H]12
[1]
  GI50: 7270 nM
  TGI: 38.6 µM
[2]
  GI50: 20.1 µM
  TGI: 48.7 µM
[3]
  GI50: 26100 nM
  TGI: 65.1 µM
[4]
  GI50: 4190 nM
  TGI: 26.7 µM
[5]
  GI50: 23100 nM
  TGI: 55.5 µM
[6]
  GI50: 3580 nM
  TGI: > 100 µM
[7]
  GI50: 4130 nM
  TGI: 18.1 µM
[8]
  GI50: 5.75 µM
  TGI: 35.7 µM
[9]
  GI50: 21.7 µM
  TGI: 44.6 µM
[10]
  GI50: 3560 nM
  TGI: 13.5 µM

## CCN(CC)C(=O)COc1ccc(Br)cc1Br
[1]
  TGI: > 100 µM
[2]
  TGI: 58 µM
[3]
  TGI: > 100 µM
[4]
  TGI: > 100 µM
[5]
  TGI: > 100 µM
[6]
  TGI: > 100 µM
[7]
  TGI: > 100 µM
[8]
  TGI: > 100 µM
[9]
  TGI: > 100 µM
[10]
  TGI: > 100 µM

## CSc1nc2sc3cc(Cl)ccc3n2c(=N)c1C#N
[1]
  GI50: 2200 nM
  TGI: > 23.6 µM
[2]
  GI50: 10.7 µM
  TGI: > 100 µM
[3]
  GI50: 12200 nM
  TGI: > 100 µM
[4]
  GI50: > 100000 nM
  TGI: > 100 µM
[5]
  GI50: 6150 nM
  TGI: 24 µM
[6]
  GI50: 3330 nM
  TGI: > 100 µM
[7]
  GI50: > 55000 nM
  TGI: > 100 µM
[8]
  GI50: > 79.7 µM
  TGI: > 100 µM
[9]
  GI50: 6.05 µM
  TGI: > 100 µM
[10]
  GI50: > 62200 nM
  TGI: > 100 µM

## CC1OC(OCC2COC(O)(Oc3c(-c4ccc(O)c(O)c4)oc4cc(O)cc(O)c4c3=O)C(O)C2O)C(O)C(O)C1O (stereo not given)
[1]
  TGI: > 100 µM
[2]
  TGI: > 100 µM
[3]
  TGI: > 100 µM
[4]
  TGI: > 100 µM
[5]
  TGI: > 100 µM
[6]
  TGI: > 100 µM
[7]
  TGI: > 100 µM
[8]
  TGI: > 100 µM
[9]
  TGI: > 100 µM
[10]
  TGI: > 100 µM

## CC1=C(C(=O)NCc2ccccc2)C(c2ccccc2[N+](=O)[O-])C(C(=O)NCc2ccccc2)=C(C)N1
[1]
  TGI: 50.5 µM
[2]
  TGI: 30.1 µM
[3]
  TGI: 68.1 µM
[4]
  TGI: 22.4 µM
[5]
  TGI: 25.4 µM
[6]
  TGI: 33.8 µM
[7]
  TGI: 22.8 µM
[8]
  TGI: 31.4 µM
[9]
  TGI: 29.4 µM
[10]
  TGI: 27.4 µM

## NS(=O)(=O)c1ccc(CCN=C=S)cc1
[1]
  GI50: 3050 nM
  TGI: > 100 µM
[2]
  GI50: 2.35 µM
  TGI: 6.23 µM
[3]
  GI50: 2030 nM
  TGI: 4.85 µM
[4]
  GI50: 1300 nM
  TGI: 3.37 µM
[5]
  GI50: 1710 nM
  TGI: 3.34 µM
[6]
  GI50: 2150 nM
  TGI: 4.52 µM
[7]
  GI50: 1940 nM
  TGI: 4.13 µM
[8]
  GI50: 3.53 µM
  TGI: 13.1 µM
[9]
  GI50: 2.74 µM
  TGI: 9.24 µM
[10]
  GI50: 1850 nM
  TGI: 3.65 µM

## CC(=O)O[C@H]1C(=O)[C@@]2(C)C(C(OC(=O)c3ccccc3)[C@]3(O)CC(OC(=O)C(O)C(NC(=O)c4ccc(C)cc4)c4ccccc4)C(C)=C1C3(C)C)[C@]1(OC(C)=O)CO[C@@H]1C[C@@H]2O (stereo not given in full)
[1]
  TGI: 7.39 µM
[2]
  TGI: > 25 µM
[3]
  TGI: > 25 µM
[4]
  TGI: 3.29 µM
[5]
  TGI: > 25 µM
[6]
  TGI: 0.00736 µM
[7]
  TGI: > 25 µM
[8]
  TGI: > 25 µM
[9]
  TGI: > 25 µM
[10]
  TGI: > 25 µM

## COc1ccc(/C=C/c2n[nH]c3ccc(N4CCOC4=O)cc23)cc1
[1]
  GI50: 1460 nM
  TGI: 9.54 µM
[2]
  GI50: 3.39 µM
  TGI: 36.1 µM
[3]
  GI50: 1660 nM
  TGI: 14.2 µM
[4]
  GI50: 1120 nM
  TGI: 12.5 µM
[5]
  GI50: 3760 nM
  TGI: > 100 µM
[6]
  GI50: 501 nM
  TGI: 3.05 µM
[7]
  GI50: 2510 nM
  TGI: > 100 µM
[8]
  GI50: 1.95 µM
  TGI: 11.8 µM
[9]
  GI50: 3.6 µM
  TGI: 9.3 µM
[10]
  GI50: 2640 nM
  TGI: 23.2 µM
